The source made the active and inactive calls.

From ChEMBL document CHEMBL1201862, “PubChem BioAssay data set” (2004) come the findings set out here.

Assay [1] can be described thus: HepG2 cell cytotoxicity, dose response, cytotoxicity control for Shn3 inhibitor project, CellTiter-Glo, cherry-picked (AID 624134). It counts as functional, cell-based.
The nature of assay [2]: Shn3 3'UTR reporter inhibitors, dose response, cell-based, Clone20 osteoblasts, firefly luciferase, cherry-picked (AID 624132).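 Also: firefly luciferase luminescence from reporter carrying the Shn3 3'UTR in osteoblasts.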 The format is functional.
Assay [3] deals with ATP-dependent molecular chaperone HSP82 (Candida albicans (strain WO-1) (Yeast), UniProt C4YTQ8). Nature of the assay: loss of DOC-induced GRE-beta-galactosidase reporter signal, dose response, Hsp90 inhibitor project, S. cerevisiae, luminescence (AID 2400).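 Also: beta-galactosidase luminescence from glucocorticoid response element reporter as proxy for Hsp90 function; inhibitor potency where signal loss means Hsp90 inhibition.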 It counts as functional, cell-based.
Assay [4] in a line: C. albicans growth with fluconazole, confirmation, fluorescence, retest (AID 2467). It counts as functional, cell-based.
Assay [5] addresses Serine/threonine-protein kinase PLK3 (Homo sapiens, UniProt Q9H4B4). It counts as functional.
The target in assay [6] is Lymphokine-activated killer T-cell-originated protein kinase (Homo sapiens, UniProt Q96KB5). The format is functional.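 Also: value comes from a kinase panel screen in which TOPK was one of the panel members.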
The target of assay [7] is MAP kinase-activated protein kinase 3 (Homo sapiens, UniProt Q16644). The format is functional.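 Also: value comes from a kinome-wide profiling panel in which MAPKAPK3 is one of the panel members.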
Assay [8] deals with Homeodomain-interacting protein kinase 4 (Homo sapiens, UniProt Q8NE63). It counts as functional.
The target of assay [9] is RAC-gamma serine/threonine-protein kinase (Homo sapiens, UniProt Q9Y243). It counts as functional.
Assay [10] addresses Macrophage colony-stimulating factor 1 receptor (Homo sapiens, UniProt P07333). It counts as functional.
For assay [11], the target named is Vascular endothelial growth factor receptor 2 (Homo sapiens, UniProt P35968). It counts as functional.
The target in assay [12] is Eukaryotic elongation factor 2 kinase (Homo sapiens, UniProt O00418). The format is functional.
Assay [13] has as its target Cyclin-dependent kinase 1 (Homo sapiens, UniProt P06493). It counts as functional.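 Also: Kinome-wide panel profiling, with the target listed as panel member CDC2.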
Assay [14] deals with Glycogen synthase kinase-3 alpha (Homo sapiens, UniProt P49840). The format is functional.
In assay [15] the target is MAP kinase-interacting serine/threonine-protein kinase 2 (Homo sapiens, UniProt Q9HBH9). It counts as functional.
A further assay concerns the target LIM domain kinase 1 (Homo sapiens, UniProt P53667). Nature of the assay: Navigating the Kinome. Panel member name: LIMK1. It counts as functional.
Assay [16] has as its target Tyrosine-protein kinase BTK (Homo sapiens, UniProt Q06187). It counts as functional.
Assay [17] concerns the target Mitogen-activated protein kinase kinase kinase kinase 5 (Homo sapiens, UniProt Q9Y4K4). It counts as functional.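 Also: measured as one member of a kinome-spanning kinase panel.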
Assay [18] concerns the target Tyrosine-protein kinase JAK2 (Homo sapiens, UniProt O60674). The format is functional.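 Also: JAK2 tested as one member of a kinase panel.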
For assay [19], the target named is Ribosomal protein S6 kinase beta-1 (Homo sapiens, UniProt P23443). It counts as functional.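 Also: measured as one member of a kinome-wide profiling panel.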
Assay [20] addresses Vascular endothelial growth factor receptor 3 (Homo sapiens, UniProt P35916). It counts as functional.
For assay [21], the target named is Platelet-derived growth factor receptor alpha (Homo sapiens, UniProt P16234). Nature of the assay: Navigating the Kinome. Panel member name: PDGFRA. The format is functional.
Assay [22] concerns the target High affinity nerve growth factor receptor (Homo sapiens, UniProt P04629). It counts as functional.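 Also: NTRK1 tested as one member of a kinome-wide profiling panel.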
For assay [23], the target named is Dual specificity tyrosine-phosphorylation-regulated kinase 4 (Homo sapiens, UniProt Q9NR20). It counts as functional.
Assay [24] addresses Protein kinase C gamma type (Homo sapiens, UniProt P05129). The format is functional.
Assay [25] concerns the target Tyrosine-protein kinase Lyn (Homo sapiens, UniProt P07948). The format is functional.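 Also: lyn as one member of a kinase panel.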
Assay [26] deals with ALK tyrosine kinase receptor (Homo sapiens, UniProt Q9UM73). It counts as functional.
In assay [27] the target is Serine/threonine-protein kinase TAO1 (Homo sapiens, UniProt Q7L7X3). The format is functional.
In assay [28] the target is Calcium/calmodulin-dependent protein kinase type II subunit gamma (Homo sapiens, UniProt Q13555). The format is functional.
The target in assay [29] is Serine/threonine-protein kinase pim-3 (Homo sapiens, UniProt Q86V86). It counts as functional.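 Also: value obtained as one member of a broad kinase panel profiling effort.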
Assay [30] deals with Casein kinase II subunit alpha (Homo sapiens, UniProt P68400). It counts as functional.
The target in assay [31] is Casein kinase I isoform delta (Homo sapiens, UniProt P48730). The format is functional.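 Also: measured as one member (CSNK1D) of a kinome panel.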
For assay [32], the target named is Leucine-rich repeat serine/threonine-protein kinase 2 (Homo sapiens, UniProt Q5S007). The format is functional.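 Also: value from a broad kinome-wide panel profiling study in which LRRK2 was one of the kinases tested.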
A further assay deals with Insulin receptor (Homo sapiens, UniProt P06213). It counts as functional.
The target of assay [33] is Cyclin-dependent kinase 2 (Homo sapiens, UniProt P24941). It counts as functional.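 Also: CDK2 measured as one member of a broad kinome profiling panel.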
The target of assay [34] is Megakaryocyte-associated tyrosine-protein kinase (Homo sapiens, UniProt P42679). It counts as functional.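 Also: affinity measured as one member of a kinase panel (Navigating the Kinome) against MATK.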
Assay [35] has as its target Tyrosine-protein kinase ABL1 (Homo sapiens, UniProt P00519). The format is functional.
Assay [36] has as its target Homeodomain-interacting protein kinase 2 (Homo sapiens, UniProt Q9H2X6). The format is functional.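 Also: measured within a kinome-wide kinase profiling panel, HIPK2 being one panel member.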
Assay [37] deals with Tyrosine-protein kinase receptor TYRO3 (Homo sapiens, UniProt Q06418). It counts as functional.
The target in assay [38] is Serine/threonine-protein kinase PAK 1 (Homo sapiens, UniProt Q13153). The format is functional.
Assay [39] addresses Multidrug resistance protein CDR1 (Candida albicans, UniProt P43071). Briefly: CaCDR1 efflux pump inhibitors in yeast, dose response, S. cerevisiae AD1-8u, singleplex, Cherry Pick1 hits (AID 588606). It counts as functional.
Assay [40] has as its target Intestinal-type alkaline phosphatase (Homo sapiens, UniProt P09923). Nature of the assay: inhibition of human intestinal alkaline phosphatase – biochemical, dose response (AID 488876). It counts as functional.

Chain of Vascular endothelial growth factor receptor 3 (P35916 whole entry): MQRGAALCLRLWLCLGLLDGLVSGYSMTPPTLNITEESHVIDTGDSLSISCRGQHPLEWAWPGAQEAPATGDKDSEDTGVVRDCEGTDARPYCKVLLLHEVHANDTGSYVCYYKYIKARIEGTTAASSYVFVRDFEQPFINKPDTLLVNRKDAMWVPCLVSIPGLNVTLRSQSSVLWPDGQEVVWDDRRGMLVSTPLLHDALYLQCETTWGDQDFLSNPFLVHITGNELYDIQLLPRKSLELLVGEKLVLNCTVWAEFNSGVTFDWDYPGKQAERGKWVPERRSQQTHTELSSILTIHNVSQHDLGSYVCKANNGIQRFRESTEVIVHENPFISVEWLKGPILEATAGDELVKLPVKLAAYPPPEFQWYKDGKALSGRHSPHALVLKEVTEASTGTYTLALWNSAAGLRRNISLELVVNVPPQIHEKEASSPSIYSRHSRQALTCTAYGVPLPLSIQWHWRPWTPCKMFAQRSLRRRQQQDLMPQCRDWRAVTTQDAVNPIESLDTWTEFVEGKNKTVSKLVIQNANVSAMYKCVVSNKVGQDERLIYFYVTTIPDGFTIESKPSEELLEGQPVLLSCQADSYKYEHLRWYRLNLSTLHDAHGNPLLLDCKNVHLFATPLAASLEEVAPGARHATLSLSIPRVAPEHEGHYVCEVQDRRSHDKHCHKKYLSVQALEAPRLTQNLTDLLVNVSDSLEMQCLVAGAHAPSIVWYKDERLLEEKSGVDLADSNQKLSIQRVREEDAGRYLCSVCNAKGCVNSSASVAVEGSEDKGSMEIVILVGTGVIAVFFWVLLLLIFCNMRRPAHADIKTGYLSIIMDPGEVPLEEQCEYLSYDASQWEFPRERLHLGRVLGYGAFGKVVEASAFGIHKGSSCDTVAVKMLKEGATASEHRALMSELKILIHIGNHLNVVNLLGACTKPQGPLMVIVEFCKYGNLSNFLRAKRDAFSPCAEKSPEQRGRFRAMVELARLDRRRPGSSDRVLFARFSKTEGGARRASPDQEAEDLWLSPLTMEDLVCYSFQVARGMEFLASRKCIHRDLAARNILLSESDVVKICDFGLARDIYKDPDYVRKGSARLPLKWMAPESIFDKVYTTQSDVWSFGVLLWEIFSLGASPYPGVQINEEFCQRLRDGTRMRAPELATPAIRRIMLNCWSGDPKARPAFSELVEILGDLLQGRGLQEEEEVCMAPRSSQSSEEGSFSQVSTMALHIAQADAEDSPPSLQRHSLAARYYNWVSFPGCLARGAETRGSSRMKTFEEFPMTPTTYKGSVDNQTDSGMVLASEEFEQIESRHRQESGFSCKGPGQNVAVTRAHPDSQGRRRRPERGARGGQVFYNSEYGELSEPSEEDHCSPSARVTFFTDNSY
Chain of Megakaryocyte-associated tyrosine-protein kinase (P42679 whole entry): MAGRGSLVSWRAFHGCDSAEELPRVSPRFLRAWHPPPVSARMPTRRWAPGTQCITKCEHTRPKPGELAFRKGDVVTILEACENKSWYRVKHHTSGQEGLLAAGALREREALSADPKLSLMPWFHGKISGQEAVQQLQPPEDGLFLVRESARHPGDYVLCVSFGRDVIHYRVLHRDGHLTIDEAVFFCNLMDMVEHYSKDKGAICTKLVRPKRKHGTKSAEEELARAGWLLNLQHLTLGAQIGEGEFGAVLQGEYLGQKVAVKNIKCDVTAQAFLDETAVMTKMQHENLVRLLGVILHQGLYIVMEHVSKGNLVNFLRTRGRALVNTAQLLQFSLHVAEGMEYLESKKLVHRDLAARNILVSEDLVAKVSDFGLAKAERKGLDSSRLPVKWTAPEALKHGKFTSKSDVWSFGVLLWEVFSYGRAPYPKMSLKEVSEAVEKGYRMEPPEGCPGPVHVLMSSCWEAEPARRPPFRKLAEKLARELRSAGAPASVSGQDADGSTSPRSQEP
Chain of Tyrosine-protein kinase JAK2 (O60674 whole entry): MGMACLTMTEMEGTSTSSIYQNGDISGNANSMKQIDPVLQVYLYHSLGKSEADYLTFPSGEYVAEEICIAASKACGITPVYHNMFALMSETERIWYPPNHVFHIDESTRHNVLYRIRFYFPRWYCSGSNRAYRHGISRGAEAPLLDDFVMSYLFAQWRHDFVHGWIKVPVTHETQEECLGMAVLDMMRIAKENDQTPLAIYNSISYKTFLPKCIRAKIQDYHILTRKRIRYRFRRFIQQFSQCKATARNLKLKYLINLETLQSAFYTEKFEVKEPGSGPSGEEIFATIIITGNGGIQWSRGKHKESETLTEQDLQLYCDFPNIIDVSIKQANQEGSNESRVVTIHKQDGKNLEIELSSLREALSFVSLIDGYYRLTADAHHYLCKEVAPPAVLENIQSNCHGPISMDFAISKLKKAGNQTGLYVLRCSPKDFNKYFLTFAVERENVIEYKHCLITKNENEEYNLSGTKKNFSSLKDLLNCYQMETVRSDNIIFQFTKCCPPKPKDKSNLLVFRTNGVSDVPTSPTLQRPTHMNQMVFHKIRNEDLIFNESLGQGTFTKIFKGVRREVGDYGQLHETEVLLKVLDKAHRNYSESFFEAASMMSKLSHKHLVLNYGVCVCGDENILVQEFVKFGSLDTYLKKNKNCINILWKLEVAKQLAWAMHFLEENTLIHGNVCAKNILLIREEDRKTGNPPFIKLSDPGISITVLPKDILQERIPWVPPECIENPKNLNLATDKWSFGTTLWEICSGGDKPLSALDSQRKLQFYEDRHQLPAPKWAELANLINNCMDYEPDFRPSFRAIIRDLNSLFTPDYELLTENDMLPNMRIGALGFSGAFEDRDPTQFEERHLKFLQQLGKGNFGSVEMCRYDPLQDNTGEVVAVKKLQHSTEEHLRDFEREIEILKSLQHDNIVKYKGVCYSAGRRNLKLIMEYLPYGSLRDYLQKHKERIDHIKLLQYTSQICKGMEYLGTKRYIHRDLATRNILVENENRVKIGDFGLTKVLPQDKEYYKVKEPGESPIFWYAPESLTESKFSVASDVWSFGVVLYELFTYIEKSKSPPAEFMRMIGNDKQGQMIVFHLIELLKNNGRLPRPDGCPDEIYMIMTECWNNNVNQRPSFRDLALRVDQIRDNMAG
Chain of ATP-dependent molecular chaperone HSP82 (C4YTQ8 whole entry): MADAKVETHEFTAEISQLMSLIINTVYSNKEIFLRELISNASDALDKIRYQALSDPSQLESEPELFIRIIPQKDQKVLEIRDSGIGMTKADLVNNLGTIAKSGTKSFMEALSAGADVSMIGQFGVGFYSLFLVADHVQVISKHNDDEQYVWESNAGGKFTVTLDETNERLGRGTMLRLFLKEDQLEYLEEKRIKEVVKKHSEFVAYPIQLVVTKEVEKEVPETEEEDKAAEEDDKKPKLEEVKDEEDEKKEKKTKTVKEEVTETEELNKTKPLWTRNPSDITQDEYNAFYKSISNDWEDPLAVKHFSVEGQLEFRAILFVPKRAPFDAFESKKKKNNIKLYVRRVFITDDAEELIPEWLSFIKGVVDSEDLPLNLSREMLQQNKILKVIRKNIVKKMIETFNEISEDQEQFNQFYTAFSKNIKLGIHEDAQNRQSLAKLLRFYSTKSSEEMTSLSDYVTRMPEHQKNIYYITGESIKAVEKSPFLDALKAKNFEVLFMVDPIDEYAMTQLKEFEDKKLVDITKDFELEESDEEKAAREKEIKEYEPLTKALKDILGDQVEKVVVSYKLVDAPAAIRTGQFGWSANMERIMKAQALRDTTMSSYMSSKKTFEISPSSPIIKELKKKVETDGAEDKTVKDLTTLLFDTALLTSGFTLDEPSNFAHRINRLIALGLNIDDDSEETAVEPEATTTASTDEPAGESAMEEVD
Chain of LIM domain kinase 1 (P53667 whole entry, the tested form may be a part): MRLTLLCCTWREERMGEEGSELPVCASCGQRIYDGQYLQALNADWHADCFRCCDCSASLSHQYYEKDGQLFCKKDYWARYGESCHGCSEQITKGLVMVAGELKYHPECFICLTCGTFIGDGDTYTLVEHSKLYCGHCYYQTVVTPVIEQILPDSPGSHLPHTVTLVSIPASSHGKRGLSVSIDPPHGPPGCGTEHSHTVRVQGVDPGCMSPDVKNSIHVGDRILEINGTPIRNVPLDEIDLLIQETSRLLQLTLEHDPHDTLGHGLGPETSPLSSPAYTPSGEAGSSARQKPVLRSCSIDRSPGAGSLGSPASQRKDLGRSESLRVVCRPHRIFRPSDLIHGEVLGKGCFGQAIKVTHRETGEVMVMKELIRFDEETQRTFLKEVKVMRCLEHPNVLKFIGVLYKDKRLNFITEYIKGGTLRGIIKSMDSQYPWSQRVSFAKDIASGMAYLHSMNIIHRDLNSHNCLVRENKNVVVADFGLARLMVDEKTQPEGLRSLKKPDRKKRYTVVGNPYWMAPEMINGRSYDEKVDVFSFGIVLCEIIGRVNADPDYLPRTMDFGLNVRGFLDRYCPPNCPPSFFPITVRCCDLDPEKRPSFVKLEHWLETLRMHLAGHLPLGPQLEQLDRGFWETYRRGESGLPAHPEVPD

As for `COC(=O)C1CN(C#N)N(c2ccc(Cl)cc2)C12c1ccccc1-c1ccccc12` (configuration not stated), the AC50 (commonly the concentration at which the activity in the assay is half-maximal) in assay [1] is 8.85 µM (active); in assay [2], < 0.26 µM (active).

`CN(C)S(=O)(=O)Oc1cccc(C(=O)Nc2ccc(Cl)c(Cl)c2)c1`: the 50% effective concentration (EC50) (in general, the concentration giving half of the maximal effect) in [3] was 18.2 µM (active); in assay [4] it was 0.574 µM (active).

For the compound `Nc1noc2cccc(-c3cccc(O)c3)c12`, the Ki (as a rule, the equilibrium dissociation constant of an inhibitor or competing ligand from its target) in assay [5] is > 7.94 µM (inactive); in [6], > 10 µM (inactive); in assay [7], > 10 µM (inactive); in assay [8], > 7.94 µM (inactive); in assay [9], > 10 µM (inactive); in [10] it was > 5.01 µM (inactive). Further, the Ki in assay [11] is 7.94 µM (active); in [12], > 3.98 µM (inactive); in assay [13] it was > 7.94 µM (inactive); in assay [14], > 50.1 µM (inactive); in assay [15], 1 µM (active); at LIM domain kinase 1, 2.51 µM (active). The Ki was > 39.8 µM (inactive) in [16]; > 7.94 µM (inactive) in assay [17]; > 1.58 µM (inactive) in assay [18]; 0.126 µM (active) in assay [19]; > 6.31 µM (inactive) in [20]; 6.31 µM (active) in assay [21]. Further, the Ki in assay [22] was > 2.51 µM (inactive); in assay [23] it was > 7.94 µM (inactive); in assay [24], > 7.94 µM (inactive); in assay [25], > 1.58 µM (inactive); in assay [26] it was 6.31 µM (active); in [27], > 25.1 µM (inactive). For the same compound, the Ki in [28] is 6.31 µM (active); in [29] it was > 7.94 µM (inactive); in [30], > 6.31 µM (inactive); in assay [31], 6.31 µM (active); in assay [32], 3.16 µM (active); at Insulin receptor, > 5.01 µM (inactive). Moreover, the Ki in assay [33] is > 7.94 µM (inactive); in assay [34], > 2 µM (inactive); in assay [35] it was > 1 µM (inactive); in assay [36], > 3.16 µM (inactive); in assay [37], > 7.94 µM (inactive); in assay [38], > 10 µM (inactive).

Consider `Cc1ccc2[nH]c(/C(C#N)=C/c3ccc(O)c(O)c3)nc2c1`, for which the concentration for a half-maximal effect (EC50) in [39] was 13.4 µM (active).

Turning to `O=C(NN1C(=O)CSC1=S)C(=O)NN1C(=O)CSC1=S`, the IC50 (in general, the concentration that inhibits the measured activity by half) in assay [40] is > 100 µM (inactive).
